# Results reported in PMC9562916, “Investigation of the Phenolic Component Bioavailability Using the In Vitro Digestion/Caco-2 Cell Model, as well as the Antioxidant Activity in Chinese Red Wine” (Foods, 2022).
# Marks after values point to notes of the source that are not given here.
# Test system: not listed separately
# Assay: PC content of red wine before and after in vitro simulated gastrointestinal digestion (HPLC)
# Type: in vitro ADME
# Conditions: Cabernet red wine, after simulated gastrointestinal digestion
# Experimental: The digestion procedure was carried out by adapting the method of Brodkorb et al. and Gómez et al.. […] One milliliter (50 units/mL) of porcine amylase was prepared in a 15 mM Na₃PO₄ buffer solution (pH adjusted to 6.8) containing 1.5 mM CaCl2, and it was added to the red wine solution. After 5 min, 4.5 mL of 0.12 M HCl was added to the mixture to adjust the pH to 2.4. One milliliter of porcine pepsin (0.02 mg/L) was dissolved in a 20 mM HCl solution. The mixture was then maintained at 37 °C for 120 min. The digestion mixture was then centrifuged at 8000× g for 15 min to obtain samples from the gastric digestion phase. […] The mixture was incubated at pH 6.5 at 37 °C for 3 h before being centrifuged. The extracts of the intestinal phase were the supernatants. The same operation was done three times, and each sample was stored in a refrigerator (−20 °C) immediately for further analysis.
# The Pati method was adopted, with slight modifications, to measure the content of the PCs. The Agilent 1100 series HPLC instrument was used; it was equipped with a degasser, quaternary pump solvent delivery, a DAD system, and a single quadrupole mass detector coupled with an electrospray ionization LC–MS interface. Briefly, th samples were injected into a Zorbax SB C18 reversed-phase column (5 µm,150 × 2.1 mm, Agilent Technologies, Santa Clara, CA, USA) using an autosampler after filtering through 0.45 µm cellulose acetate syringe filters. The column temperature was kept at 30 °C, the injection volume was 10 µL, and the flow rate was 0.3 mL/min. The eluents were water and formic acid in a 99:1 (v/v) (A) ratio and 100% acetonitrile (B). […] The MS configuration was as follows: ESI, negative ion mode, nebulizer pressure of 30 psi, a dry gas flow rate of 10 mL/min, dry gas temperature of 350 °C, and a scan rate of 100~1200 m/z. PCs were determined according to their retention times, UV/VIS spectra, and high-resolution MS spectra, in addition to a comparison with the standards. […] Putative annotations were made using spectral features and literature information on the chromatographic properties and mass spectra records from the metabolome database. A standard curve was drawn using methanol solutions with different concentrations as the standards. The limits of detection and quantitation were calculated according to the signal-to-noise ratio (limit of detection: signal-to-noise ratio ≥ 3; limit of quantitation: signal-to-noise ratio ≥ 10). […] PCs All of the samples were determined in triplicate.
row,SMILES,"PC Contents, Cabernet, After Digestion"
1,COc1cc(-c2[o+]c3cc(O)cc(O)c3cc2O[C@@H]2O[C@H](COC(C)=O)[C@@H](O)[C@H](O)[C@H]2O)cc(OC)c1O [Malvidin-3-acglc],39.8 ± 1.51 ^b mg/L
2,"COc1cc(-c2[o+]c3cc(O)cc(O)c3cc2O[C@@H]2O[C@H](CO)[C@@H](O)[C@H](O)[C@H]2O)cc(OC)c1O [Malvidin-3-glc, malvidin-3-glucoside]",153.43 ± 5.83 ^b mg/L

# Same assay, conditions: Helanshan red wine, after simulated gastrointestinal digestion
row,SMILES,"PC Contents, Helanshan, After Digestion"
1,COc1cc(-c2[o+]c3cc(O)cc(O)c3cc2O[C@@H]2O[C@H](COC(C)=O)[C@@H](O)[C@H](O)[C@H]2O)cc(OC)c1O [Malvidin-3-acglc],30.5 ± 0.92 ^b mg/L
2,"COc1cc(-c2[o+]c3cc(O)cc(O)c3cc2O[C@@H]2O[C@H](CO)[C@@H](O)[C@H](O)[C@H]2O)cc(OC)c1O [Malvidin-3-glc, malvidin-3-glucoside]",88.2 ± 3.97 ^b mg/L

# Same assay, conditions: Tianzhu red wine, after simulated gastrointestinal digestion
row,SMILES,"PC Contents, Tianzhu, After Digestion"
1,COc1cc(-c2[o+]c3cc(O)cc(O)c3cc2O[C@@H]2O[C@H](COC(C)=O)[C@@H](O)[C@H](O)[C@H]2O)cc(OC)c1O [Malvidin-3-acglc],39.3 ± 1.30 ^b mg/L
2,"COc1cc(-c2[o+]c3cc(O)cc(O)c3cc2O[C@@H]2O[C@H](CO)[C@@H](O)[C@H](O)[C@H]2O)cc(OC)c1O [Malvidin-3-glc, malvidin-3-glucoside]",103.8 ± 5.71 ^b mg/L

# Test system: not listed separately
# Assay: Caco-2 transepithelial transport assay of digested red wine
# Type: in vitro ADME, human
# Conditions: human, Caco-2, apical to basolateral, digested Cabernet red wine; read-out: Apparent Permeability Coefficients, Cabernet
# Experimental: (§1) Caco-2 cells were inoculated following the method of Hubatsch et al. […] Briefly, a 5% v/v of CO2 incubator at 37 °C was used to house the cells. […] Caco-2 cells were sub-cultured when they reached 80-90% of the adherent growth by treating them with a 0.05% v/v of trypsin-EDTA solution. The culture between passages 35 and 40 was used for the following experiment. Transport experiments were performed according to the method of Wu et al. with slight modifications. First, 1.0 × 10^5 Caco-2 cells were inoculated onto 12 mm transparent cell culture plates (Transwell). Media were carefully injected into the apical (0.5 mL) and basolateral (1.5 mL) sides of the Transwell plates. The cell culture medium had to be replaced every other day until the cells formed a monolayer. The integrity and transport ability of the Caco-2 cell monolayer were evaluated by measuring the trans-epithelial electrical resistance (TEER) with a MilliCell voltammeter (Millicell ERS-2, Merck Millipore, Billerica, MA, USA). […] When the cell activity exceeded 0.9, a transport experiment was conducted. The apical side was injected with a digested red wine sample (0.5 mL) and was thoroughly mixed with […] Balanced Salt Solution (HBSS) buffer solution. […] The cells were then cultured in a 37 °C, 5% CO2 incubator. Then, 0.25 mL samples were separately taken from the basolateral side of the monolayer. An equal volume of HBSS buffer was then added every half hour from the beginning of the culture until the end of the culture at 6 h. The collected samples were subsequently filtered and placed in the sample bottle for further HPLC analysis. This experiment was repeated several times to collect enough samples for the next antioxidant test. […] The Agilent 1100 series HPLC instrument was used; it was equipped with a degasser, quaternary pump solvent delivery, a DAD system, and a single quadrupole mass detector coupled with an electrospray ionization LC-MS interface. […] The column temperature was kept at 30 °C, the injection volume was 10 μL, and the flow rate was 0.3 mL/min. The eluents were water and formic acid in a 99:1 (v/v) (A) ratio and 100% acetonitrile (B). The gradient elution procedure was as follows: (1) 3% B solvent at 0 min, (2) 3 to 16% B solvent at 10 min, (3) 16 to 20% B solvent at 30 min, and (4) 20% B solvent maintained until the procedure was completed. The MS configuration was as follows: ESI, negative ion mode, nebulizer pressure of 30 psi, a dry gas flow rate of 10 mL/min, dry gas temperature of 350 °C, and a scan rate of 100~1200 m/z. PCs were determined according to their retention times, UV/VIS spectra, and high-resolution MS spectra, in addition to a comparison with the standards. […] If a standard was unavailable, a structurally related compound was used. Putative annotations were made using spectral features and literature information on the chromatographic properties and mass spectra records from the metabolome database. A standard curve was drawn using methanol solutions with different concentrations as the standards. […] PCs All of the samples were determined in triplicate.
row,Papp at 6 h,SMILES
1,11.4 ± 1.77 ×10⁻⁶ cm/s,Oc1cc(O)c2c(c1)O[C@H](c1ccc(O)c(O)c1)[C@H](O)C2 [Epicatechin]

# Same assay, conditions: human, Caco-2, apical to basolateral, digested Helanshan red wine; read-out: Apparent Permeability Coefficients, Helanshan
row,Papp at 6 h,SMILES
1,11.5 ± 1.53 ×10⁻⁶ cm/s,Oc1cc(O)c2c(c1)O[C@H](c1ccc(O)c(O)c1)[C@H](O)C2 [Epicatechin]

# Same assay, conditions: human, Caco-2, apical to basolateral, digested Tianzhu red wine; read-out: Apparent Permeability Coefficients, Tianzhu
row,Papp at 6 h,SMILES
1,11.4 ± 1.46 ×10⁻⁶ cm/s,Oc1cc(O)c2c(c1)O[C@H](c1ccc(O)c(O)c1)[C@H](O)C2 [Epicatechin]

# Test system: Caco-2 cell monolayer
# Assay: as above
# Type: in vitro ADME, human
# Conditions: Cabernet red wine, digested sample, basolateral side of Caco-2 monolayer
# Experimental: as §1
row,SMILES,"PC Contents, Cabernet, Transmembrane"
1,COc1cc(-c2[o+]c3cc(O)cc(O)c3cc2O[C@@H]2O[C@H](COC(C)=O)[C@@H](O)[C@H](O)[C@H]2O)cc(OC)c1O [Malvidin-3-acglc],8.02 ± 0.38 ^a mg/L
2,"COc1cc(-c2[o+]c3cc(O)cc(O)c3cc2O[C@@H]2O[C@H](CO)[C@@H](O)[C@H](O)[C@H]2O)cc(OC)c1O [Malvidin-3-glc, malvidin-3-glucoside]",62.38 ± 3.24 ^a mg/L

# Same assay, conditions: Helanshan red wine, digested sample, basolateral side of Caco-2 monolayer
row,SMILES,"PC Contents, Helanshan, Transmembrane"
1,COc1cc(-c2[o+]c3cc(O)cc(O)c3cc2O[C@@H]2O[C@H](COC(C)=O)[C@@H](O)[C@H](O)[C@H]2O)cc(OC)c1O [Malvidin-3-acglc],6.06 ± 0.25 ^a mg/L
2,"COc1cc(-c2[o+]c3cc(O)cc(O)c3cc2O[C@@H]2O[C@H](CO)[C@@H](O)[C@H](O)[C@H]2O)cc(OC)c1O [Malvidin-3-glc, malvidin-3-glucoside]",35.55 ± 1.46 ^a mg/L

# Same assay, conditions: Tianzhu red wine, digested sample, basolateral side of Caco-2 monolayer
row,SMILES,"PC Contents, Tianzhu, Transmembrane"
1,COc1cc(-c2[o+]c3cc(O)cc(O)c3cc2O[C@@H]2O[C@H](COC(C)=O)[C@@H](O)[C@H](O)[C@H]2O)cc(OC)c1O [Malvidin-3-acglc],7.83 ± 0.23 ^a mg/L
2,"COc1cc(-c2[o+]c3cc(O)cc(O)c3cc2O[C@@H]2O[C@H](CO)[C@@H](O)[C@H](O)[C@H]2O)cc(OC)c1O [Malvidin-3-glc, malvidin-3-glucoside]",20.68 ± 1.05 ^a mg/L

# Same assay, conditions: apical to basolateral, digested Cabernet red wine
row,SMILES,"Apparent Permeability Coefficients, Cabernet"
1,COc1cc(-c2[o+]c3cc(O)cc(O)c3cc2O[C@@H]2O[C@H](COC(C)=O)[C@@H](O)[C@H](O)[C@H]2O)cc(OC)c1O [Malvidin-3-acglc],12.59 ± 2.16 ^a ×10^−6 cm/s

# Same assay, conditions: apical to basolateral, digested Helanshan red wine
row,SMILES,"Apparent Permeability Coefficients, Helanshan"
1,COc1cc(-c2[o+]c3cc(O)cc(O)c3cc2O[C@@H]2O[C@H](COC(C)=O)[C@@H](O)[C@H](O)[C@H]2O)cc(OC)c1O [Malvidin-3-acglc],12.42 ± 2.23 ^a ×10^−6 cm/s
2,"COc1cc(-c2[o+]c3cc(O)cc(O)c3cc2O[C@@H]2O[C@H](CO)[C@@H](O)[C@H](O)[C@H]2O)cc(OC)c1O [Malvidin-3-glc, malvidin-3-glucoside]",25.19 ± 3.99 ^a ×10^−6 cm/s

# Same assay, conditions: apical to basolateral, digested Tianzhu red wine
row,SMILES,"Apparent Permeability Coefficients, Tianzhu"
1,COc1cc(-c2[o+]c3cc(O)cc(O)c3cc2O[C@@H]2O[C@H](COC(C)=O)[C@@H](O)[C@H](O)[C@H]2O)cc(OC)c1O [Malvidin-3-acglc],12.37 ± 2.45 ^a ×10^−6 cm/s
2,"COc1cc(-c2[o+]c3cc(O)cc(O)c3cc2O[C@@H]2O[C@H](CO)[C@@H](O)[C@H](O)[C@H]2O)cc(OC)c1O [Malvidin-3-glc, malvidin-3-glucoside]",25.37 ± 4.11 ^a ×10^−6 cm/s
